# Columns and labels:
# [1] = test system: PBMCs; test: IFN gamma release in CD3/CD28 stimulated PBMC cells (assay c); assay type: cell-based; details: Homo sapiens, read-out: IC50 Values for Inhibition of Cytokine Release, PBMCs IFNγ
# In short: (§1)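 Steps: PBMCs separated from healthy whole blood by density gradient; seeded onto anti-CD3/CD28 coating (0.3 and 3 μg/mL respectively); compound added; incubated 3 days in standard tissue culture; supernatant cytokines quantified by sandwich ELISA, IC50 fitted.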
# [2] = test system: d-U937 cells; test: Accumulation of β catenin in d-U937 cells (assay m); assay type: cell-based, human; details: percentage relative to Reference Compound at 1 μg/mL
# In short: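 PMA-differentiated (100 ng/mL, 48–72 hr) human U937 macrophage-type cells treated with test compound or vehicle for 18 hr. β-catenin measured by in-cell ELISA (anti-β-catenin, HRP secondary, TMB, OD450–655). Signal corrected for cell number by dividing by crystal violet OD595.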
# [3] = molecular target: c-Src (Homo sapiens (Human), UniProt P12931); test: c-Src enzyme inhibition (FRET, Z-LYTE); assay type: biochemical
# In short: (§2)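 c-Src (3000 ng/mL) or Syk (2000 ng/mL) stock was preincubated with compound (4–0.004 μg/mL stocks) for 2 hr at RT. FRET peptide (8 μM stock) and ATP (800 μM c-Src, 60 μM Syk, as added) were then added for 1 hr, followed by 1 hr protease development. The coumarin/fluorescein emission ratio gave % inhibition and IC50.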
# [4] = test system: PBMCs; test: IL-2 release in CD3/CD28 stimulated PBMC cells (assay c); assay type: cell-based; details: Homo sapiens, read-out: IC50 Values for Inhibition of Cytokine Release, PBMCs IL-2
# In short: as §1
# [5] = molecular target: p38 MAPKα isoform (MAPK14) (Homo sapiens (Human), UniProt Q16539); test: p38 MAPKα enzyme inhibition (FRET, Z-LYTE, Method 2); assay type: biochemical
# In short: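 Z-LYTE FRET: p38 MAPKα (80 ng/mL for Method 1, 200 ng/mL for Method 2, pre-dilution) preincubated 2 hr RT with compound (4–0.004 μg/mL solutions), activity read via MAPKAP-K2 phosphorylation after 1 hr RT and 1 hr protease development. Coumarin/fluorescein ratio gives phosphorylation; % inhibition versus uninhibited control, IC50 from concentration-response curve.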
# [6] = molecular target: Syk (Homo sapiens (Human), UniProt P43405); test: Syk enzyme inhibition (FRET, Z-LYTE); assay type: biochemical
# In short: as §2
# [7] = molecular target: GSK 3α (Homo sapiens (Human), UniProt P49840); test: GSK 3α enzyme inhibition (FRET, Z-LYTE, Method 2); assay type: biochemical; details: read-out: IC50 Values for Enzyme Inhibition, GSK3α
# In short: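 Recombinant human GSK3α was preincubated with compound (stocks 4, 0.4, 0.04 or 0.004 μg/mL) at RT, 2 hr for Method 1 and 105 min for Method 2. FRET peptide (8 μM stock) and ATP (40 μM stock) were added for 1 hr, then protease development for 1 hr. IC50 was taken from concentration–response curves.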
# Chain of c-Src (P12931 whole entry, looked up): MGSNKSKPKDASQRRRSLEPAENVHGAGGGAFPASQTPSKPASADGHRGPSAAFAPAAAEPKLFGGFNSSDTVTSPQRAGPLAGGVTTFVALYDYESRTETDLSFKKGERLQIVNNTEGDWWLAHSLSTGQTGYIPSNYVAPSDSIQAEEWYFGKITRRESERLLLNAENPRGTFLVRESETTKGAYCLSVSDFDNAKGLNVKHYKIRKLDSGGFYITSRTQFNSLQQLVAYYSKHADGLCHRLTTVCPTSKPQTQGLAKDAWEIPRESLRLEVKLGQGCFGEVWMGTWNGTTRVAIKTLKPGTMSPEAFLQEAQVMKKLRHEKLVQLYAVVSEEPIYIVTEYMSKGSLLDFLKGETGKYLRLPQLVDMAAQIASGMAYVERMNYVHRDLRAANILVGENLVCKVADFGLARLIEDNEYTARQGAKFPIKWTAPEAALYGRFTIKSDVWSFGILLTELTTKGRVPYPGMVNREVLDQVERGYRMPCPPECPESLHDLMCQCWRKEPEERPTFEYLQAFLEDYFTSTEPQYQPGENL
# Chain of p38 MAPKα isoform (MAPK14) (Q16539 whole entry, canonical isoform): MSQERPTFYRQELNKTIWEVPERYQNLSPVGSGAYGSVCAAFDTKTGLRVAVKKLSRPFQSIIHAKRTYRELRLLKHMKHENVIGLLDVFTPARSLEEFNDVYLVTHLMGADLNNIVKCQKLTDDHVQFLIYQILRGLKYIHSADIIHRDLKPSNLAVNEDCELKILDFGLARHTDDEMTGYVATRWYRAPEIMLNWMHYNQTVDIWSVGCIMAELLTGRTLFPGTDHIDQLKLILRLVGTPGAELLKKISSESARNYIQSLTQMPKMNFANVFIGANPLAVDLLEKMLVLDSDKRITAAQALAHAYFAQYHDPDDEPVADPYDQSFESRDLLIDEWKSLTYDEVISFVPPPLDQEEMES
# Chain of GSK 3α (P49840 whole entry): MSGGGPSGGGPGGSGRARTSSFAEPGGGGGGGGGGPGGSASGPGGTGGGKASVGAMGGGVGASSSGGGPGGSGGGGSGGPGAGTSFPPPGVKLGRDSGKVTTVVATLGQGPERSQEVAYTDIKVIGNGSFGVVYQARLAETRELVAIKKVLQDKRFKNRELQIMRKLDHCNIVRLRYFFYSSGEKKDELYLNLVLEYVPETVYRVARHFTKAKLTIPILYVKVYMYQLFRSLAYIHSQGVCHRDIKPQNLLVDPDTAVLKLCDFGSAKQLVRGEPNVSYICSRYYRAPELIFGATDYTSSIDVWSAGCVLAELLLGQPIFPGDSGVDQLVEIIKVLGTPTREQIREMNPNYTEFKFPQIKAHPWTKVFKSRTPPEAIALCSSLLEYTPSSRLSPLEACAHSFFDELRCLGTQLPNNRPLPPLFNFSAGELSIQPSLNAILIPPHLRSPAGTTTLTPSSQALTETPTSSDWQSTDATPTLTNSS
structure (smiles),measurement,setting,value
"COc1cncc(Nc2cc(Oc3ccc(NC(=O)Nc4cc(C(C)(C)C)cc(CC(N)=O)c4OC)c4ccccc34)ccn2)c1 [38(n), 2-(5-(tert-butyl)-2-methoxy-3-(3-(4-((2-((5-methoxypyridin-3-yl)amino)pyridin-4-yl)oxy)naphthalen-1-yl)ureido)phenyl)acetamide]",IC50,[1],0.0141 µM
same,% β-catenin induction,[2]; test compound 1 μg/mL,2.0%
same,% β-catenin induction,[2]; test compound 5 μg/mL,21.0%
same,% β-catenin induction,[2]; test compound 10 μg/mL,23.5%
same,IC50,[3],0.095 µM
same,IC50,[4],0.348 µM
same,IC50,[5],0.043 µM
same,IC50,[6],> 1.61 µM
same,IC50,[7],1.2 µM
"COc1c(CC(N)=O)cc(C(C)(C)C)cc1NC(=O)Nc1ccc(Oc2ccnc(Nc3ccn(C)n3)c2)c2ccccc12 [38(o), 2-(5-(tert-Butyl)-2-methoxy-3-(3-(4-((2-((1-methyl-1H-pyrazol-3-yl)amino)pyridin-4-yl)oxy)naphthalen-1-yl)ureido)phenyl)acetamide]",IC50,[1],0.0078 µM
same,% β-catenin induction,[2]; test compound 1 μg/mL,13.0%
same,% β-catenin induction,[2]; test compound 5 μg/mL,38.0%
same,% β-catenin induction,[2]; test compound 10 μg/mL,35.0%
same,IC50,[3],0.047 µM
same,IC50,[4],0.0608 µM
same,IC50,[5],0.009 µM
same,IC50,[6],0.381 µM
same,IC50,[7],1.05 µM
"COc1c(CNC(C)=O)cc(C(C)(C)C)cc1NC(=O)Nc1ccc(Oc2ccnc(NCc3ccccn3)c2)c2ccccc12 [38(q), N-(5-(tert-Butyl)-2-methoxy-3-(3-(4-((2-((pyridin-2-ylmethyl)amino)pyridin-4-yl)oxy)naphthalen-1-yl)ureido)benzyl)acetamide]",IC50,[1],0.0261 µM
same,% β-catenin induction,[2]; test compound 1 μg/mL,11.5%
same,% β-catenin induction,[2]; test compound 5 μg/mL,41.5%
same,% β-catenin induction,[2]; test compound 10 μg/mL,57.5%
same,IC50,[3],0.383 µM
same,IC50,[4],0.443 µM
same,IC50,[5],0.006 µM
same,IC50,[6],> 1.62 µM
same,IC50,[7],1.5 µM
"COCCOCCOCCOc1cc(Nc2cc(Oc3ccc(NC(=O)Nc4cc(C(C)(C)C)cc(P(C)(C)=O)c4OC)c4ccccc34)ccn2)cc(OC)c1 [Example 2, 1-(5-(tert-Butyl)-3-(dimethylphosphoryl)-2-methoxyphenyl)-3-(4-((2-((3-methoxy-5-(2-(2-(2-methoxyethoxy)ethoxy)ethoxy)phenyl)amino)pyridin-4-yl)oxy)naphthalen-1-yl)urea]",IC50,[1],0.0029 µM
same,% β-catenin induction,[2]; test compound 1 μg/mL,4.0%
same,% β-catenin induction,[2]; test compound 5 μg/mL,32.5%
same,% β-catenin induction,[2]; test compound 10 μg/mL,31.5%
same,IC50,[3],0.011 µM
same,IC50,[4],0.0761 µM
same,IC50,[5],0.051 µM
same,IC50,[6],0.053 µM
same,IC50,[7],2.81 µM
"C#Cc1cc(Nc2cc(Oc3ccc(NC(=O)Nc4cc(C(C)(C)C)cc(P(C)(C)=O)c4OC)c4ccccc34)ccn2)cc(C(=O)NCCOCCOCCOC)c1 [Example 3, 3-((4-((4-(3-(5-(tert-Butyl)-3-(dimethylphosphoryl)-2-methoxyphenyl)ureido)naphthalen-1-yl)oxy)pyridin-2-yl)amino)-5-ethynyl-N-(2-(2-(2-methoxyethoxy)ethoxy)ethyl)benzamide]",IC50,[1],0.0184 µM
same,% β-catenin induction,[2]; test compound 1 μg/mL,5.7%
same,% β-catenin induction,[2]; test compound 5 μg/mL,9.7%
same,% β-catenin induction,[2]; test compound 10 μg/mL,7.3%
same,IC50,[3],0.038 µM
same,IC50,[4],0.181 µM
same,IC50,[5],0.091 µM
same,IC50,[6],> 1.22 µM
same,IC50,[7],4.9 µM
"COCCOCCOCCOc1cc(Nc2nccc(Oc3ccc(NC(=O)Nc4cc(C(C)(C)C)cc(C(=O)NCCN5CCOCC5)c4OC)c4ccccc34)n2)cc(OC)c1 [Example 8, 5-(tert-Butyl)-2-methoxy-3-(3-(4-((2-((3-methoxy-5-(2-(2-(2-methoxyethoxy)ethoxy)-ethoxy)phenyl)amino)pyrimidin-4-yl)oxy)naphthalen-1-yl)ureido)-N-(2-morpholinoethyl)-benzamide]",IC50,[1],0.0022 µM
same,% β-catenin induction,[2]; test compound 1 μg/mL,2.5%
same,% β-catenin induction,[2]; test compound 5 μg/mL,22.5%
same,% β-catenin induction,[2]; test compound 10 μg/mL,26.5%
same,IC50,[3],0.014 µM
same,IC50,[4],0.0414 µM
same,IC50,[5],0.188 µM
same,IC50,[6],0.042 µM
same,IC50,[7],0.788 µM
"COCCOCCOCCOc1cc(Nc2cc(Oc3ccc(NC(=O)Nc4cc(C(C)(C)C)cc(S(C)(=O)=O)c4OC)c4ccccc34)ccn2)cc(OC)c1 [Example 9, 1-(5-(tert-Butyl)-2-methoxy-3-(methylsulfonyl)phenyl)-3-(4-((2-((3-methoxy-5-(2-(2-(2-methoxyethoxy)ethoxy)ethoxy)phenyl)amino)pyridin-4-yl)oxy)naphthalen-1-yl)urea]",IC50,[1],0.0094 µM
same,% β-catenin induction,[2]; test compound 1 μg/mL,4.5%
same,% β-catenin induction,[2]; test compound 5 μg/mL,5.5%
same,% β-catenin induction,[2]; test compound 10 μg/mL,0.0%
same,IC50,[3],0.052 µM
same,IC50,[4],0.0427 µM
same,IC50,[5],0.29 µM
same,IC50,[6],0.233 µM
same,IC50,[7],> 10.7 µM
"COCCOCCOCCOc1cc(Nc2cc(Oc3ccc(NC(=O)Nc4cc(C(C)(C)C)cc(P(C)(C)=O)c4)c4ccccc34)ccn2)cc(OC)c1 [Example 10, 1-(3-(tert-Butyl)-5-(dimethylphosphoryl)phenyl)-3-(4-((2-((3-methoxy-5-(2-(2-(2-methoxy-ethoxy)ethoxy)ethoxy)phenyl)amino)pyridin-4-yl)oxy)naphthalen-1-yl)urea]",IC50,[1],0.0313 µM
same,% β-catenin induction,[2]; test compound 1 μg/mL,−2.5%
same,% β-catenin induction,[2]; test compound 5 μg/mL,−6.0%
same,% β-catenin induction,[2]; test compound 10 μg/mL,−4.0%
same,IC50,[3],0.016 µM
same,IC50,[4],0.0886 µM
same,IC50,[5],0.045 µM
same,IC50,[6],> 0.887 µM
same,IC50,[7],> 8.34 µM
"COc1c(NC(=O)Nc2ccc(Oc3ccnc(Nc4ccccc4)c3)c3ccccc23)cc(C(C)(C)C)cc1P(C)(C)=O [Example 11, 1-(5-(tert-Butyl)-3-(dimethylphosphoryl)-2-methoxyphenyl)-3-(4-((2-(phenylamino)pyridin-4-yl)oxy)naphthalen-1-yl)urea]",IC50,[1],0.0105 µM
same,% β-catenin induction,[2]; test compound 1 μg/mL,5.0%
same,% β-catenin induction,[2]; test compound 5 μg/mL,19.7%
same,% β-catenin induction,[2]; test compound 10 μg/mL,27.3%
same,IC50,[3],0.032 µM
same,IC50,[4],0.0806 µM
same,IC50,[5],0.141 µM
same,IC50,[6],0.186 µM
same,IC50,[7],3.83 µM
"COc1c(CC(N)=O)cc(C(C)(C)C)cc1NC(=O)Nc1ccc(Oc2ccnc(Nc3ccccc3)c2)c2ccccc12 [Example 13, 2-(5-(tert-Butyl)-2-methoxy-3-(3-(4-((2-(phenylamino)pyridin-4-yl)oxy)naphthalen-1-yl)ureido)phenyl)acetamide]",IC50,[1],0.0504 µM
same,% β-catenin induction,[2]; test compound 1 μg/mL,−4.0%
same,% β-catenin induction,[2]; test compound 5 μg/mL,6.5%
same,% β-catenin induction,[2]; test compound 10 μg/mL,9.5%
same,IC50,[3],0.239 µM
same,IC50,[4],0.204 µM
same,IC50,[5],0.108 µM
same,IC50,[6],1.39 µM
same,IC50,[7],7.58 µM
"COc1c(NC(=O)Nc2ccc(Oc3ccnc(Nc4ccccc4)c3)c3ccccc23)cc(C(C)(C)C)cc1C(=O)NCCN1CCOCC1 [Example 14, 5-(tert-Butyl)-2-methoxy-N-(2-morpholinoethyl)-3-(3-(4-((2-(phenylamino)pyridin-4-yl)oxy)naphthalen-1-yl)ureido)benzamide]",IC50,[1],0.0163 µM
same,% β-catenin induction,[2]; test compound 1 μg/mL,−0.5%
same,% β-catenin induction,[2]; test compound 5 μg/mL,22.0%
same,% β-catenin induction,[2]; test compound 10 μg/mL,25.5%
same,IC50,[3],0.135 µM
same,IC50,[4],0.0392 µM
same,IC50,[5],0.392 µM
same,IC50,[6],0.364 µM
same,IC50,[7],> 10.1 µM
